The experiment relates to CD2F1 mice, L1210 leukemia ip, survival T/C. Nature of the experiment: NCI In Vivo Anticancer Drug Screen. Data for tumor model L1210 Leukemia (intraperitoneal) in CD2F1 (CDF1) mice. Conditions: higher = longer survival. Summed up: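 In this screen, transplantable tumors were grown in mice given either the compound or its vehicle. Results were expressed as the treated measurement relative to the control measurement.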

Setting [1] is: endpoint: mean survival time, dose: 25.0 mg/kg/injection, schedule: Q01DX009 (ip), vehicle: Klucel (hydroxypropylcellulose) (HPC).
The mark [2] stands for this setting: endpoint: mean survival time, dose: 50.0 mg/kg/injection, schedule: Q01DX009 (ip), vehicle: Klucel (hydroxypropylcellulose) (HPC).
The mark [3] stands for this setting: endpoint: mean survival time, dose: 100.0 mg/kg/injection, schedule: Q01DX009 (ip), vehicle: Klucel (hydroxypropylcellulose) (HPC).
Setting [4] is: endpoint: mean survival time, dose: 100.0 mg/kg/injection, schedule: Q01DX009 (ip), vehicle: saline with Tween-80.
[5] abbreviates: endpoint: mean survival time, dose: 200.0 mg/kg/injection, schedule: Q01DX009 (ip), vehicle: saline with Tween-80.
[6] abbreviates: endpoint: mean survival time, dose: 400.0 mg/kg/injection, schedule: Q01DX009 (ip), vehicle: saline with Tween-80.
[7] abbreviates: endpoint: mean survival time, dose: 50.0 mg/kg/injection, schedule: Q04DX002 (ip), vehicle: saline with Tween-80.
Where [8] appears, read: endpoint: mean survival time, dose: 100.0 mg/kg/injection, schedule: Q04DX002 (ip), vehicle: saline with Tween-80.
[9] abbreviates: endpoint: mean survival time, dose: 200.0 mg/kg/injection, schedule: Q04DX002 (ip), vehicle: saline with Tween-80.
The mark [10] stands for this setting: endpoint: mean survival time, dose: 100.0 mg/kg/injection, schedule: Q04DX003 (ip), vehicle: saline with Tween-80.
[11] abbreviates: endpoint: mean survival time, dose: 200.0 mg/kg/injection, schedule: Q04DX003 (ip), vehicle: saline with Tween-80.
Where [12] appears, read: endpoint: mean survival time, dose: 100.0 mg/kg/injection, schedule: Q01DX001 (ip), vehicle: saline with Tween-80.
Where [13] appears, read: endpoint: mean survival time, dose: 200.0 mg/kg/injection, schedule: Q01DX001 (ip), vehicle: saline with Tween-80.
The mark [14] stands for this setting: endpoint: mean survival time, dose: 400.0 mg/kg/injection, schedule: Q01DX001 (ip), vehicle: saline with Tween-80.
Setting [15] is: endpoint: mean survival time, dose: 400.0 mg/kg/injection, schedule: Q04DX003 (ip), vehicle: saline with Tween-80.

Molecules are shown by their SMILES. Toxic doses and inconclusive results are not listed. Positions of bridges follow the written chain, without caps; N, C: chain ends. Non-standard residues stand in square brackets, D forms with d. Residues, ends and D or L forms follow the SMILES beside them. Chains are numbered I, II in the order given. *: point of attachment. Quinoxaline2carbonyl = O=C(c1cnc2ccccc2n1)*; NMeV = CN[CH](C(=O)O)C(C)C; NMeC = CN[CH](CS)C(=O)O

Among the data in PubChem BioAssay AID256 (DTP/NCI, 2004) are T/C values, retold here.

Take `C(/C=C\c1ccccc1)=Nc1ccccc1`: the T/C under setting [1] was 93 % of control; the T/C under setting [2] was 93 % of control; the T/C (endpoint: mean survival time, dose: 100.0 mg/kg/injection, schedule: Q01DX001 (ip), vehicle: saline sonified) is 93 % of control; the T/C under setting [3] was 95 % of control; the T/C under setting [4] is 101 % of control; the T/C under setting [5] is 97 % of control. Besides, under setting [6], the T/C was 92 % of control.

As to `[Cl][Hg][Cl]`, the T/C is 101 % of control (endpoint: median survival time, dose: 0.39 mg/kg/injection, schedule: Q01DX009 (ip), vehicle: saline); 97 % of control (endpoint: median survival time, dose: 0.78 mg/kg/injection, schedule: Q01DX009 (ip), vehicle: saline); 101 % of control (endpoint: median survival time, dose: 1.56 mg/kg/injection, schedule: Q01DX009 (ip), vehicle: saline); 92 % of control (endpoint: median survival time, dose: 3.12 mg/kg/injection, schedule: Q01DX009 (ip), vehicle: saline).

Take `COC(OC)c1[nH]c(=S)[nH]c(=O)c1Cc1cc(C)ccc1C`: the T/C (endpoint: mean survival time, dose: 100.0 mg/kg/injection, schedule: Q04DX003 (ip), vehicle: saline sonified) was 101 % of control; the T/C (endpoint: mean survival time, dose: 200.0 mg/kg/injection, schedule: Q04DX003 (ip), vehicle: saline sonified) was 95 % of control; the T/C (endpoint: mean survival time, dose: 400.0 mg/kg/injection, schedule: Q04DX003 (ip), vehicle: saline sonified) is 101 % of control.

Take `COc1cccc2c1C(=O)c1c(O)c3c(c(O)c1C2=O)C[C@H](O)C[C@@H]3OC1CC(N)C(O)C(C)O1` (stereo partly drawn): the T/C is 107 % of control (endpoint: mean survival time, dose: 0.75 mg/kg/injection, schedule: Q01DX009 (ip), vehicle: saline); 105 % of control (endpoint: mean survival time, dose: 1.5 mg/kg/injection, schedule: Q01DX009 (ip), vehicle: saline); 111 % of control (endpoint: mean survival time, dose: 3.0 mg/kg/injection, schedule: Q01DX009 (ip), vehicle: saline); 121 % of control (endpoint: mean survival time, dose: 3.0 mg/kg/injection, schedule: Q01DX009 (ip), vehicle: water); 104 % of control (endpoint: mean survival time, dose: 6.0 mg/kg/injection, schedule: Q01DX009 (ip), vehicle: saline); 115 % of control (endpoint: mean survival time, dose: 12.0 mg/kg/injection, schedule: Q01DX009 (ip), vehicle: saline). The T/C is 118 % of control (endpoint: mean survival time, dose: 12.0 mg/kg/injection, schedule: Q01DX009 (ip), vehicle: water) and 152 % of control (endpoint: mean survival time, dose: 24.0 mg/kg/injection, schedule: Q01DX009 (ip), vehicle: water).

With `COc1cccc(C(=O)CC(O)(C(F)(F)F)C(F)(F)F)c1`, the T/C is, setting by setting: (endpoint: mean survival time, dose: 100.0 mg/kg/injection, schedule: Q01DX009 (ip), vehicle: other) 101 % of control; (endpoint: mean survival time, dose: 200.0 mg/kg/injection, schedule: Q01DX009 (ip), vehicle: other) 97 % of control; (endpoint: mean survival time, dose: 400.0 mg/kg/injection, schedule: Q01DX009 (ip), vehicle: other) 101 % of control.

Regarding `CCN(CC)C(=O)SCCSC(=O)N(CC)CC`, the T/C was 96 % of control (endpoint: mean survival time, dose: 25.0 mg/kg/injection, schedule: Q04DX002 (ip), vehicle: saline with Tween-80); 104 % of control under setting [7]; 101 % of control under setting [8]; 91 % of control under setting [9]; 95 % of control (endpoint: mean survival time, dose: 400.0 mg/kg/injection, schedule: Q04DX002 (ip), vehicle: saline with Tween-80).

Consider `CC(=O)OC1CCC2(C)C(=CCC3C2CCC2(C)C(OC(=O)c4ccccc4)CCC32)C1` (stereo not drawn), for which the T/C is 104 % of control (endpoint: mean survival time, dose: 100.0 mg/kg/injection, schedule: Q04DX003 (ip), vehicle: acetone); 90 % of control (endpoint: mean survival time, dose: 200.0 mg/kg/injection, schedule: Q04DX003 (ip), vehicle: acetone); 86 % of control (endpoint: mean survival time, dose: 400.0 mg/kg/injection, schedule: Q04DX003 (ip), vehicle: acetone).

On to `O=C(c1ccc2c(c1)OCO2)c1ccc[nH]1`, for which the T/C reads like this: under setting [10], 94 % of control; under setting [11], 91 % of control.

With `CC(C)CCC(=O)c1ccccc1`, the T/C runs as follows: under setting [7], 87 % of control; under setting [8], 97 % of control; under setting [9], 91 % of control.

With `COc1ccc2[nH]c(=O)oc(=O)c2c1`, the T/C reads like this: (endpoint: mean survival time, dose: 12.5 mg/kg/injection, schedule: Q01DX009 (ip), vehicle: Klucel (hydroxypropylcellulose) (HPC)) 96 % of control; under setting [1], 102 % of control; under setting [2], 108 % of control; under setting [12], 96 % of control; under setting [3], 106 % of control; under setting [4], 104 % of control. Further, the T/C by setting is: under setting [13], 107 % of control; under setting [14], 105 % of control.

In the case of `CC1NC(=O)C(NC(=O)c2cnc3ccccc3n2)COC(=O)C(C(C)C)N(C)C(=O)C2CSSCC(C(=O)N(C)C(C(C)C)C(=O)OCC(NC(=O)c3cnc4ccccc4n3)C(=O)NC(C)C(=O)N2C)N(C)C1=O` (stereo not drawn) (I: Quinoxaline2carbonyl-SA[NMeC][NMeV] / II: Quinoxaline2carbonyl-SA[NMeC][NMeV]; ester I:1-II:C, I:C-II:1; disulfide I:3-II:3; configuration not given here), the T/C (endpoint: mean survival time, dose: 11.2 micrograms/kg/injection, schedule: Q01DX009 (ip), vehicle: Klucel (hydroxypropylcellulose) (HPC)) was 101 % of control; the T/C (endpoint: mean survival time, dose: 22.5 micrograms/kg/injection, schedule: Q01DX009 (ip), vehicle: Klucel (hydroxypropylcellulose) (HPC)) was 103 % of control; the T/C (endpoint: mean survival time, dose: 45.0 micrograms/kg/injection, schedule: Q01DX009 (ip), vehicle: Klucel (hydroxypropylcellulose) (HPC)) was 105 % of control; the T/C (endpoint: mean survival time, dose: 50.0 micrograms/kg/injection, schedule: Q01DX009 (ip), vehicle: other) was 114 % of control; the T/C (endpoint: mean survival time, dose: 90.0 micrograms/kg/injection, schedule: Q01DX009 (ip), vehicle: Klucel (hydroxypropylcellulose) (HPC)) was 105 % of control; the T/C (endpoint: mean survival time, dose: 180.0 micrograms/kg/injection, schedule: Q01DX009 (ip), vehicle: Klucel (hydroxypropylcellulose) (HPC)) is 100 % of control. Moreover, the T/C (endpoint: mean survival time, dose: 200.0 micrograms/kg/injection, schedule: Q01DX009 (ip), vehicle: other) is 115 % of control.

Regarding `OCC1OC(n2cnc3c(NCCc4ccc(O)c(O)c4)ncnc32)C(O)C1O` (stereo not drawn), the T/C runs as follows: (endpoint: mean survival time, dose: 12.5 mg/kg/injection, schedule: Q01DX005 (ip), vehicle: saline with Tween-80) 104 % of control; (endpoint: mean survival time, dose: 25.0 mg/kg/injection, schedule: Q01DX005 (ip), vehicle: saline with Tween-80) 109 % of control; (endpoint: mean survival time, dose: 50.0 mg/kg/injection, schedule: Q01DX005 (ip), vehicle: saline with Tween-80) 116 % of control.

As to `CO[C@H]1C[C@@H]2CC[C@@H](C)[C@@](O)(O2)C(=O)C(=O)N2CCCC[C@H]2C(=O)O[C@H]([C@H](C)C[C@@H]2CC[C@@H](O)[C@H](OC)C2)CC(=O)[C@H](C)C=C(C)[C@@H](O)[C@@H](OC)C(=O)[C@H](C)C[C@H](C)/C=C/C=C/C=C1C`, the T/C is 107 % of control (endpoint: mean survival time, dose: 12.5 mg/kg/injection, schedule: Q01DX009 (ip), vehicle: saline with Tween-80); 113 % of control (endpoint: mean survival time, dose: 25.0 mg/kg/injection, schedule: Q01DX009 (ip), vehicle: saline with Tween-80); 114 % of control (endpoint: mean survival time, dose: 50.0 mg/kg/injection, schedule: Q01DX009 (ip), vehicle: saline with Tween-80); 113 % of control under setting [12]; 112 % of control under setting [4]; 111 % of control under setting [13]. The T/C was 104 % of control under setting [5] and 120 % of control under setting [14].

As to `O=C(CC(=O)c1ccccc1O)c1ccccc1`, the T/C runs as follows: under setting [4], 91 % of control; under setting [5], 88 % of control; under setting [6], 94 % of control.

With `N#CCCC(CCC#N)c1ccccc1`, the T/C is 107 % of control under setting [4]; 106 % of control under setting [10]; 103 % of control under setting [5]; 93 % of control under setting [11]; 105 % of control under setting [6]; 104 % of control under setting [15].

`O=C(O)C(=O)O`: the T/C is 92 % of control (endpoint: mean survival time, dose: 200.0 mg/kg/injection, schedule: Q01DX001 (ip), vehicle: saline) and 97 % of control (endpoint: mean survival time, dose: 400.0 mg/kg/injection, schedule: Q01DX001 (ip), vehicle: saline).

For `O=C(O)c1ccccc1NO`, the T/C was 90 % of control under setting [10], 98 % of control under setting [11] and 90 % of control under setting [15].
